One may read the Ki as a dissociation constant, usually derived from enzyme kinetics or from competition with a known ligand.

These results are taken from patent US12559529B2, “NPY2 receptor agonists” (Boehringer Ingelheim International GmbH, priority 2019, dated 2026).

*1 amine or outer side, *2 acyl side, *3 side chain or, on linkers, in order; H or OH if unused. Where a SMILES comes first, the peptide text is derived from it. Side-chain parts run from the residue outwards. The star is where a group is joined. C18 diacid = O=C(O)CCCCCCCCCCCCCCCCC(=O)*; γGlu = O=C(O)[C@H](CCC(=O)[*:2])N[*:1]; Isovaleryl = CC(C)CC(=O)*; AEEA = NCCOCCOCC(=O)O

In the test the target is T1, Human Neuropeptide Y2 Receptor (Homo sapiens, UniProt P49146).
T1 construct: purchased CHEMICON HTS066M
T1 sequence (P49146 1-381): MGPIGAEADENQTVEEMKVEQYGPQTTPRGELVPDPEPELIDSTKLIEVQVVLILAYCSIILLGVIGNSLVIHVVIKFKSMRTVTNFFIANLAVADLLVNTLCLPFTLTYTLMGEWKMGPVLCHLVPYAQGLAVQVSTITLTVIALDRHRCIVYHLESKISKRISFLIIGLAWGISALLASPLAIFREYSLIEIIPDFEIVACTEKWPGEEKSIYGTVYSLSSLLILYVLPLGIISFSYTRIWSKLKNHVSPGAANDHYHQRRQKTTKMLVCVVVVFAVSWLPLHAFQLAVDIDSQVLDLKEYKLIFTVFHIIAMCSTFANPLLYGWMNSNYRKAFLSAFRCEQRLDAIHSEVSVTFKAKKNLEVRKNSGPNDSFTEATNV
The experiment in a line: Radioligand binding competition assay (RLB). Particulars: Table 3; human 125I-PYY (1-36) 0.02 nM, Y2 receptor membranes; read-out: Ki. The essentials: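 Membranes from cells expressing human Y2 receptor (0.5 μg protein/well) were incubated with radioligand and serially diluted peptides in 50 mM HEPES, 5 mM MgCl2, 1 mM CaCl2, 0.2% ovalbumin, pH 7.4, for 2 h at room temperature with shaking. Bound radioactivity was collected by filtration and counted; IC50 from sigmoidal nonlinear regression.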
As for `CC(C)CC(=O)N[C@@H](C)C(=O)N1CCC[C@H]1C(=O)N[C@@H](CCC(=O)O)C(=O)N[C@@H](CCCCNC(=O)COCCOCCNC(=O)COCCOCCNC(=O)CC[C@H](NC(=O)CCCCCCCCCCCCCCCCC(=O)O)C(=O)O)C(=O)N1CCC[C@H]1C(=O)N[C@@H](CCC(=O)O)C(=O)N[C@@H](CCC(=O)O)C(=O)N[C@@H](CC(=O)O)C(=O)N[C@@H](C)C(=O)N[C@@H](C)C(=O)N1CCC[C@H]1C(=O)N[C@@H](CCC(=O)O)C(=O)N[C@@H](CCC(=O)O)C(=O)N[C@H](C(=O)N[C@@H](CCC(N)=O)C(=O)N[C@@H](CCCNC(=N)N)C(=O)N[C@@H](Cc1ccc(O)cc1)C(=O)N[C@@H](Cc1ccc(O)cc1)C(=O)N[C@H](C(=O)N[C@@H](CO)C(=O)N[C@@H](CC(C)C)C(=O)N[C@@H](CCCNC(=N)N)C(=O)N[C@@H](Cc1c[nH]cn1)C(=O)N[C@@H](Cc1ccc(O)cc1)C(=O)N[C@@H](Cc1ccc(O)cc1)C(=O)N[C@@H](CC(N)=O)C(=O)N[C@@H](Cc1c[nH]c2ccccc12)C(=O)N[C@@H](CC(C)C)C(=O)N[C@H](C(=O)N[C@@H](CCCNC(=N)N)C(=O)N[C@@H](CCC(N)=O)C(=O)N[C@@H](CCCNC(=N)N)C(=O)N[C@@H](Cc1ccc(O)cc1)C(N)=O)[C@@H](C)O)C(C)C)[C@@H](C)O` [Compound 35, N{alpha-4}-(3-methylbutanoyl)-N{epsilon-7}-[2-(2-{2-[2-(2-{2-[(4S)-4-carboxy-4-(17-carboxyheptadecanamido)butanamido]ethoxy}ethoxy)acetamido]ethoxy}ethoxy)acetamido]-[4A,7K,9E,13A,17T,18Q,22V,28Y,30W,31L]hPYY (4-36)], the Ki was determined as 1.21 nM. For `CC(C)CC(=O)N[C@@H](C)C(=O)N1CCC[C@H]1C(=O)N[C@@H](CCC(=O)O)C(=O)N[C@@H](CCCCNC(=O)COCCOCCNC(=O)COCCOCCNC(=O)CC[C@H](NC(=O)CCCCCCCCCCCCCCCCC(=O)O)C(=O)O)C(=O)N[C@@H](C)C(=O)N[C@@H](CCC(=O)O)C(=O)N[C@@H](CCC(=O)O)C(=O)N[C@@H](CC(=O)O)C(=O)N[C@@H](C)C(=O)N[C@@H](CCC(=O)O)C(=O)N1CCC[C@H]1C(=O)N[C@@H](CCC(=O)O)C(=O)N[C@@H](CCC(=O)O)C(=O)N[C@@H](CC(C)C)C(=O)N[C@@H](CCC(N)=O)C(=O)N[C@@H](CCCNC(=N)N)C(=O)N[C@@H](Cc1ccc(O)cc1)C(=O)N[C@@H](Cc1ccc(O)cc1)C(=O)N[C@H](C(=O)N[C@@H](CO)C(=O)N[C@@H](CC(C)C)C(=O)N[C@@H](CCCNC(=N)N)C(=O)N[C@@H](Cc1c[nH]cn1)C(=O)N[C@@H](Cc1ccc(O)cc1)C(=O)N[C@@H](Cc1ccc(O)cc1)C(=O)N[C@@H](CC(N)=O)C(=O)N[C@@H](Cc1c[nH]c2ccccc12)C(=O)N[C@@H](CC(C)C)C(=O)N[C@H](C(=O)N[C@@H](CCCNC(=N)N)C(=O)N[C@@H](CCC(N)=O)C(=O)N[C@@H](CCCNC(=N)N)C(=O)N[C@@H](Cc1ccc(O)cc1)C(N)=O)[C@@H](C)O)C(C)C` [Compound 36, N{alpha-4}-(3-methylbutanoyl)-N{epsilon-7}-[2-(2-{2-[2-(2-{2-[(4S)-4-carboxy-4-(17-carboxyheptadecanamido)butanamido]ethoxy}ethoxy)acetamido]ethoxy}ethoxy)acetamido]-[4A,7K,8A,9E,13E,18Q,22V,28Y,30W,31L]hPYY (4-36)] the value was 10.6 nM.

`CC(C)CC(=O)N[C@@H](C)C(=O)N1CCC[C@H]1C(=O)N[C@@H](CCC(=O)O)C(=O)N[C@@H](CCCCNC(=O)COCCOCCNC(=O)COCCOCCNC(=O)CC[C@H](NC(=O)CCCCCCCCCCCCCCCCC(=O)O)C(=O)O)C(=O)N1CCC[C@H]1C(=O)N[C@@H](CCC(=O)O)C(=O)N[C@@H](CCC(=O)O)C(=O)N[C@@H](CC(=O)O)C(=O)N[C@@H](C)C(=O)N[C@@H](CO)C(=O)N1CCC[C@H]1C(=O)N[C@@H](CCC(=O)O)C(=O)N[C@@H](CCC(=O)O)C(=O)N[C@H](C(=O)N[C@@H](CCC(N)=O)C(=O)N[C@@H](CCCNC(=N)N)C(=O)N[C@@H](Cc1ccc(O)cc1)C(=O)N[C@@H](CCC(=O)O)C(=O)N[C@H](C(=O)N[C@@H](CO)C(=O)N[C@@H](CC(C)C)C(=O)N[C@@H](CCCNC(=N)N)C(=O)N[C@@H](Cc1c[nH]cn1)C(=O)N[C@@H](Cc1ccc(O)cc1)C(=O)N[C@@H](Cc1ccc(O)cc1)C(=O)N[C@@H](CC(N)=O)C(=O)N[C@@H](Cc1c[nH]c2ccccc12)C(=O)N[C@@H](CC(C)C)C(=O)N[C@H](C(=O)N[C@@H](CCCNC(=N)N)C(=O)N[C@@H](CCC(N)=O)C(=O)N[C@@H](CCCNC(=N)N)C(=O)N[C@@H](Cc1ccc(O)cc1)C(N)=O)[C@@H](C)O)C(C)C)[C@@H](C)O` [Compound 37, N{alpha-4}-(3-methylbutanoyl)-N{epsilon-7}-[2-(2-{2-[2-(2-{2-[(4S)-4-carboxy-4-(17-carboxyheptadecanamido)butanamido]ethoxy}ethoxy)acetamido]ethoxy}ethoxy)acetamido]-[4A,7K,9E,17T,18Q,21E,22V,28Y,30W,31L]hPYY (4-36)]: the Ki was determined as 4.85 nM. For the compound `CC(C)CC(=O)N[C@@H](C)C(=O)N1CCC[C@H]1C(=O)N[C@@H](CCC(=O)O)C(=O)N[C@@H](CCCCNC(=O)COCCOCCNC(=O)COCCOCCNC(=O)CC[C@H](NC(=O)CCCCCCCCCCCCCCCCC(=O)O)C(=O)O)C(=O)N1CCC[C@H]1C(=O)N[C@@H](CCC(=O)O)C(=O)N[C@@H](CCC(=O)O)C(=O)N[C@@H](CC(=O)O)C(=O)N[C@@H](C)C(=O)N[C@H](C(=O)N1CCC[C@H]1C(=O)N[C@@H](CCC(=O)O)C(=O)N[C@@H](CCC(=O)O)C(=O)N[C@H](C(=O)N[C@@H](CCC(N)=O)C(=O)N[C@@H](CCCNC(=N)N)C(=O)N[C@@H](Cc1ccc(O)cc1)C(=O)N[C@@H](Cc1ccc(O)cc1)C(=O)N[C@H](C(=O)N[C@@H](CO)C(=O)N[C@@H](CC(C)C)C(=O)N[C@@H](CCCNC(=N)N)C(=O)N[C@@H](Cc1c[nH]cn1)C(=O)N[C@@H](Cc1ccc(O)cc1)C(=O)N[C@@H](Cc1ccc(O)cc1)C(=O)N[C@@H](CC(N)=O)C(=O)N[C@@H](Cc1c[nH]c2ccccc12)C(=O)N[C@@H](CC(C)C)C(=O)N[C@H](C(=O)N[C@@H](CCCNC(=N)N)C(=O)N[C@@H](CCC(N)=O)C(=O)N[C@@H](CCCNC(=N)N)C(=O)N[C@@H](Cc1ccc(O)cc1)C(N)=O)[C@@H](C)O)C(C)C)[C@@H](C)O)[C@@H](C)O` [Compound 40, N{alpha-4}-(3-methylbutanoyl)-N{epsilon-7}-[2-(2-{2-[2-(2-{2-[(4S)-4-carboxy-4-(17-carboxyheptadecanamido)butanamido]ethoxy}ethoxy)acetamido]ethoxy}ethoxy)acetamido]-[4A,7K,9E,13T,17T,18Q,22V,28Y,30W,31L]hPYY (4-36)], the inhibition constant Ki worked out at 1.21 nM. `CC(C)CC(=O)N[C@@H](C)C(=O)N1CCC[C@H]1C(=O)N[C@@H](CCC(=O)O)C(=O)N[C@@H](CCCCNC(=O)COCCOCCNC(=O)COCCOCCNC(=O)CC[C@H](NC(=O)CCCCCCCCCCCCCCCCC(=O)O)C(=O)O)C(=O)N1CCC[C@H]1C(=O)N[C@@H](CCC(=O)O)C(=O)N[C@@H](CCC(=O)O)C(=O)N[C@@H](C)C(=O)N[C@@H](C)C(=O)N[C@@H](CO)C(=O)N1CCC[C@H]1C(=O)N[C@@H](CCC(=O)O)C(=O)N[C@@H](CCC(=O)O)C(=O)N[C@@H](CC(C)C)C(=O)N[C@@H](CCC(N)=O)C(=O)N[C@@H](CCCNC(=N)N)C(=O)N[C@@H](Cc1ccc(O)cc1)C(=O)N[C@@H](Cc1ccc(O)cc1)C(=O)N[C@H](C(=O)N[C@@H](CO)C(=O)N[C@H](C(=O)N[C@@H](CCCNC(=N)N)C(=O)N[C@@H](Cc1c[nH]cn1)C(=O)N[C@@H](Cc1ccc(O)cc1)C(=O)N[C@@H](Cc1ccc(O)cc1)C(=O)N[C@@H](CC(N)=O)C(=O)N[C@@H](Cc1c[nH]c2ccccc12)C(=O)N[C@@H](CC(C)C)C(=O)N[C@H](C(=O)N[C@@H](CCCNC(=N)N)C(=O)N[C@@H](CCC(N)=O)C(=O)N[C@@H](CCCNC(=N)N)C(=O)N[C@@H](Cc1ccc(O)cc1)C(N)=O)[C@@H](C)O)[C@@H](C)O)C(C)C` [Compound 42, N{alpha-4}-(3-methylbutanoyl)-N{epsilon-7}-[2-(2-{2-[2-(2-{2-[(4S)-4-carboxy-4-(17-carboxyheptadecanamido)butanamido]ethoxy}ethoxy)acetamido]ethoxy}ethoxy)acetamido]-[4A,7K,9E,11A,18Q,22V,24T,28Y,30W,31L]hPYY (4-36)] (Isovaleryl-APEK([AEEA-AEEA-γGlu-C18 diacid])PEEAASPEELQRYYVSTRHYYNWLTRQRY-NH2): the Ki stood at 5.92 nM.
